First: CCCCc1oc2ccccc2c1C(=O)NCc1ccc2c(-c3ccc(C)cc3)c(O)ccc2c1
Second: Cc1oc(-c2cccc(-c3ccccc3)c2)nc1CCOc1cccc(OC(C)(C)C(=O)O)c1
The melting point of the first is higher: 103 to 105 °C for the first, 67 to 71 °C for the second.

First: CO/C=C1/C(=O)NC(=O)c2ccc(I)cc21
Second: COc1ccc(-c2cc3ccccc3[nH]2)c(O)c1
The melting point of the first is lower: 120 to 121 °C for the first, 195 °C for the second.

Compared with `COC(=O)c1cc(Cl)c(NC(C)=O)cc1OC1C=CCCC1` (stereo unspecified), `C[C@H]1C[C@@H](Oc2cccc(NC(=O)c3ccc(F)cc3Cl)c2)CCN1C` (relative stereo) is higher in melting point: 100 to 102 °C for the first, 152 °C for the second.

First: Cc1ccc(CCC(=O)NC(C)c2ccc(NS(C)(=O)=O)c(F)c2)cc1C (stereo unspecified)
Second: CCOC(=O)Nc1cc(=O)c2cc(Oc3ccccc3)c(NS(C)(=O)=O)cc2o1
The melting point of the first is lower: 176 to 177 °C for the first, 207 to 209 °C for the second.

First: CCCCOc1ccc2c(O)c(C(=O)NCC(=O)O)ncc2c1
Second: COc1ccc(C(=O)NCCCCCCCCCCNC(=O)c2ccc(OC)cc2)cc1
The melting point of the first is lower: 151 to 153 °C for the first, 168 to 170 °C for the second.

Compared with `CCc1cc2c(o1)S(=O)(=O)NC2=O`, `CC(C)(C)NC1=NS(=O)(=O)c2sc(Cl)cc2N1` is higher in melting point: 133 °C for the first, 368 to 372 °C for the second.

First: CC(C)C(=O)N[C@H]1C[C@H](C(=O)O)Nc2cc(Cl)cc(Cl)c21 (relative stereo)
Second: COc1cc(C)c(Cl)cc1C(=O)Cl
The melting point of the first is higher: 197 to 198 °C for the first, 106 to 107 °C for the second.

Compared with `Brc1ccc2nc(N3CCOCC3)nn2c1`, `Cn1c(=O)c(C#N)c(N2CCNCC2)c2cc(Cl)ccc21` is higher in melting point: 136 °C for the first, 223 °C for the second.

Compared with `CC(=O)C(Cl)=CSC(C)(C)C`, `CC(C)(C)S(=O)(=O)c1ccc(C(=O)O)c(Cl)c1` is higher in melting point: 73 °C for the first, 181 to 182 °C for the second.

First: O=C(O)CN[C@H]1C[C@H](O)CO1 (relative stereo)
Second: O=C(O)Cn1c(=O)sc2ccc(O)cc21
The melting point of the first is lower: 53 to 56 °C for the first, 217 to 221 °C for the second.

First: O=C(O)c1cnc(Cl)cc1C(F)(F)F
Second: O=C(Nc1cccc(NC(=O)C(F)(F)F)c1)Nc1ccc(Cl)c(Cl)c1
The melting point of the first is lower: 115 to 117 °C for the first, 221 to 223 °C for the second.

First: CC1NC(=O)NN=C1c1ccc(O)cc1 (stereo unspecified)
Second: CC1=C(c2ccncc2)SC(c2ccco2)C(=O)N1 (stereo unspecified)
The melting point of the first is higher: 256 to 259 °C for the first, 178 to 180 °C for the second.

First: CSc1ccc(C(=O)CC(=O)C(F)F)cc1
Second: CC(=O)Sc1ccc(I)cc1
The melting point of the first is higher: 68 to 70 °C for the first, 56 to 57 °C for the second.

First: O=C(NC(=S)NC1CCN(Cc2ccc3ccccc3c2)CC1)c1ccccc1
Second: Nc1sc2c(c1C(=O)c1ccc3ccccc3c1)CCN(Cc1ccccc1)C2
The melting point of the first is higher: 212 to 214 °C for the first, 174 to 177 °C for the second.

Compared with `Cc1ccc(S(=O)(=O)N(C)c2ccc(Cl)cc2N=O)cc1`, `COC(=O)c1cc(-c2ccc(S(C)(=O)=O)cc2)n(-c2ccc(F)cc2)c1` is higher in melting point: 113 to 114 °C for the first, 144 to 146 °C for the second.

First: O=C1CCc2ccc(NC(=O)c3cc4cccnc4n3Cc3cccc(F)c3)cc2N1
Second: O=C(Nc1cccc(C(F)(F)F)c1)c1cccnc1NCc1ccc(=O)[nH]c1
The melting point of the first is higher: 280 to 282 °C for the first, 200 to 202 °C for the second.

Compared with `COc1ccc2nc(Oc3c(Cl)cc(NS(=O)(=O)c4ccc(C(F)(F)F)cc4Cl)cc3Cl)sc2c1`, `O=S(=O)(c1ccc(Oc2cccc(C(F)(F)F)c2)cc1)c1ccc(Oc2cccc(C(F)(F)F)c2)cc1` is lower in melting point: 164 to 165 °C for the first, 96.5 to 97.5 °C for the second.

Going from `NS(=O)(=O)c1ccc(N2CCN(CCC3C=Cc4ccccc43)CC2)cc1` (stereo unspecified) to `O=S(=O)(Nc1ccc(N2CCN3CCC2CC3)cc1)c1ccccc1`, the melting point rises from 181 °C to 267 °C.

First: CC(C)(C)n1ncc(NCCN2CCNC(c3cccc(C(F)(F)F)c3)C2)c(Cl)c1=O (stereo unspecified)
Second: Cc1cccc2[nH]c(=O)n(CCCN3CC=C(c4ccc(Cl)cc4)CC3)c(=O)c12
The melting point of the first is lower: 124 to 127 °C for the first, 175 to 178 °C for the second.

Compared with `Cc1cc(C(=N)NO)ccc1-c1cccc(-c2nc3cc(C(=N)NO)ccc3[nH]2)c1`, `O=C(O)c1ccc(-c2n[nH]c(-c3ccccc3)n2)cc1` is higher in melting point: 295 to 297 °C for the first, > 300 °C for the second.

Compared with `O=[N+]([O-])c1cnc2ccc(Sc3ccccc3)cn12`, `O=C(O)Cc1ccccc1Sc1ccc(F)c(Cl)c1` is lower in melting point: 108 to 109 °C for the first, 85 to 87 °C for the second.

First: OCCN1CCN(C2Cc3ccccc3Sc3cc(F)c(Cl)cc32)CC1 (stereo unspecified)
Second: COC(=O)c1ccc2c(c1)Sc1ccccc1NC2
The melting point of the first is higher: 150 to 152 °C for the first, 149 to 150 °C for the second.

First: Cc1cc2c(cc1O)C(C)(C)CC1(CC(C)(C)c3cc(OCCCO)c(C)cc3O1)O2 (stereo unspecified)
Second: CCOC(=O)c1ccc(-c2c[nH]c(-c3ccc4c(c3)C(C)(C)CCC4(C)C)n2)cc1
The melting point of the first is lower: 175 to 177 °C for the first, 186 to 188 °C for the second.

Compared with `CC1=C(C(=O)OC(C)(C)C)C(c2cc(Cl)ccc2Cl)C(C(=O)OC(C)(C)C)=C(C)N1`, `CCOCC1=C(C(=O)OCC)C(c2ccccc2Cl)C(C(=O)OCC)=C(C)N1` (stereo unspecified) is lower in melting point: 181 to 183 °C for the first, 115 °C for the second.

Compared with `CCCCCCN=C=O`, `CCCCCCCCCC(=O)Oc1ccc(N(CC(=O)O)CC(=O)O)cc1OC(=O)CCCCCCCCC` is higher in melting point: 68 to 72 °C for the first, 131 to 133 °C for the second.

Compared with `COC(=O)COc1cccc2c(CNS(=O)(=O)CCCCCc3ccccc3)coc12`, `Cc1cc(C)nc(NC(=O)NS(=O)(=O)c2ccccc2S(=O)(=O)N(C)OCc2ccccc2)n1` is higher in melting point: 84.5 to 85.5 °C for the first, 186 to 192 °C for the second.

First: O=C1Cc2cc(C(=O)CCl)ccc2N1
Second: CCC1(CC)OC(=O)Nc2ccccc21
The melting point of the first is higher: 236 to 239 °C for the first, 159 to 160 °C for the second.

Compared with `COCOc1c(C)c(OC)c(OCOC)c(CCCCCc2c(OC)c(OCOC)c(C)c(OC)c2OCOC)c1OC`, `CCOC(Cn1nc(CC(=O)OC)c2ccccc2c1=O)OCC` is lower in melting point: 83 to 84 °C for the first, 68 °C for the second.

First: CC(=O)c1ccc(C=CC(=O)N2CCc3c([nH]c4ccccc34)C2c2ccc3c(c2)OCO3)cc1O (stereo unspecified)
Second: COc1ccc(-c2cnc(N3Cc4c([nH]c5ccccc5c4=O)C3c3ccc4c(c3)OCO4)nc2)cc1 (stereo unspecified)
The melting point of the first is lower: 217 to 218 °C for the first, 325 to 327 °C for the second.

Compared with `CCOC(=O)C(=C1NCCCS1)[N+](=O)[O-]`, `CC(=O)SCc1ccc([N+](=O)[O-])cc1[N+](=O)[O-]` is lower in melting point: 100 to 102 °C for the first, 78 to 79 °C for the second.

First: CC[C@@H]1CN(c2c(F)c(N)c3c(=O)c(C(=O)O)cn(C4CC4)c3c2F)C[C@H]1N (relative stereo)
Second: CCCCC1(C2CCCC2)Cc2cc(OCC(=O)O)c(Cl)c(Cl)c2C1=O (stereo unspecified)
The melting point of the first is higher: 195 to 196 °C for the first, 173 to 174 °C for the second.

Compared with `O=S(=O)(NCC(c1ccccc1)c1ccc(O)cc1)c1ccccc1` (stereo unspecified), `O=Cc1ccc(OCc2ccccc2)cc1OCc1ccccc1` is lower in melting point: 120 to 124 °C for the first, 80 to 81 °C for the second.

First: CSc1ccc(-n2c(-c3ccc(C)cc3)nc(SC)c(C#N)c2=O)cc1
Second: BrCc1ccc(-c2cnn(-c3ccc(CBr)cc3)n2)cc1
The melting point of the first is higher: 230 to 233 °C for the first, 144 to 145 °C for the second.

First: O=Cc1ccc(-c2ccccc2)cc1Cl
Second: O=c1ccn(-c2ccccc2Cl)nc1-c1ccnn1-c1ccccc1
The melting point of the first is lower: 90 to 91 °C for the first, 138 to 139 °C for the second.

Compared with `CCOC(=O)Cc1c(C(=O)O)c(C)c(C(=O)c2ccc(Cl)cc2)n1C`, `Cc1nc2c(O)c(CC[C@@H](O)c3ccc(F)cc3)c(C(=O)N(C)C)cc2n1C` is higher in melting point: 197 to 198 °C for the first, 276 to 277 °C for the second.

First: NCCn1c(-c2ccc(Br)cc2)csc1=Nc1ccccc1
Second: FC(F)(F)c1ccc(-c2nc(-c3ccccn3)cs2)cc1
The melting point of the first is lower: 58 to 61 °C for the first, 123 to 127 °C for the second.

First: COc1cccc(COc2ncc(F)c(NN)n2)c1
Second: COC(=O)C1=C(C)Nc2ccccc2SC1c1ccc(OC)cc1 (stereo unspecified)
The melting point of the first is lower: 103 to 106 °C for the first, 107 to 110 °C for the second.

First: CC(=O)N[C@@H](C)COc1cc(-c2nc3cc(OCC4CC4)ccc3o2)on1
Second: COC(=O)C(=O)c1cc2cc(C#N)ccc2o1
The melting point of the first is lower: 156 to 157 °C for the first, 196 to 199 °C for the second.

Compared with `C[Si](C)(C)OC1(c2ccccc2F)C(=O)Nc2ccc(Cl)cc21` (stereo unspecified), `O=c1c2cccnc2c(-c2ccc(Cl)cc2)c2n1CCN2` is higher in melting point: 125 to 127 °C for the first, 260 to 262 °C for the second.

First: c1coc(-c2nc(COc3ccc(CCCn4ccnc4)cc3)co2)c1
Second: N#Cc1ccc(NC(=S)NCc2cccnc2)cc1
The melting point of the first is lower: 92 to 93 °C for the first, 181 °C for the second.

First: CCC1(O)OCc2c1ccnc2OC (stereo unspecified)
Second: COc1nc(C)cnc1NS(=O)(=O)c1cccnc1-c1ccc(-c2ncon2)cc1
The melting point of the first is lower: 145 °C for the first, 179 to 180 °C for the second.

First: COC(=O)c1ccc(CC(C)NCC(O)c2ccc(O)c(CO)c2)cc1C(=O)OC (stereo unspecified)
Second: CCOc1cc(C(CS(C)(=O)=O)N2C(=O)c3cccc(Cc4ccc[nH]4)c3C2=O)ccc1OC (stereo unspecified)
The melting point of the first is higher: 124 to 129 °C for the first, 80 to 82 °C for the second.

Compared with `Nc1sc2c(c1C(=O)c1cccs1)CCC2`, `COc1cc2c(cc1Br)-c1c(-c3cccs3)c3c(n1CC2)C(=O)N(C(C)C)CCN(C(=O)C(C)C)C3` is higher in melting point: 133 to 134 °C for the first, 248 to 249 °C for the second.

Compared with `N#Cc1c(Cl)cc(Cl)c(CCC(=O)O)c1Cl`, `Clc1ccc(C2(CBr)OCC(c3ccc(Cl)cc3Cl)O2)cc1` (stereo unspecified) is lower in melting point: 127 to 129 °C for the first, 82.7 °C for the second.

Compared with `CN(CCN(C)S(=O)(=O)c1ccc(F)cc1)C(=O)c1ccc(Nc2ccnc3cc(C(F)(F)F)ccc23)cc1`, `Cn1nc(OCC(=O)c2ccc(F)cc2)c(-c2ccc(F)cc2)c1-c1ccc(S(C)(=O)=O)cc1` is lower in melting point: 191 to 193 °C for the first, 173 to 176 °C for the second.

First: C=CC(=O)NCCNC(=O)C=C
Second: CC(C)(C)OC(=O)NCC(=O)Nc1ccc(Nc2cccc3c2C(=O)c2ccccc2C3=O)cc1
The melting point of the first is lower: 150 to 155 °C for the first, 171 °C for the second.

First: Cc1ccc(Oc2ccc(C#N)cc2)c(O)c1
Second: COc1ccc(OC)c(NC(=O)NCC2(c3ccccc3)CCCCC2)c1
The melting point of the first is lower: 118 to 119 °C for the first, 164 to 166 °C for the second.

First: N#CCc1cc(Cl)cc2c(-c3ccc(Cl)cc3)onc12
Second: CC(=O)c1c(-c2ccc(Cl)cc2)c(-c2ccc(Cl)cc2)nn(CCC2OC(CO)C(O)C(O)C2O)c1=O (stereo unspecified)
The melting point of the first is higher: 187 to 190 °C for the first, 96 to 122 °C for the second.

Compared with `CC(=Nc1ccc(NC(=O)[C@@H](N)CC(C)C)cc1)N(C)C`, `CC(=O)C(=Cc1cccc([N+](=O)[O-])c1)C(=O)CCCCCCCCCCBr` is lower in melting point: 106 to 107 °C for the first, 64 to 67 °C for the second.

`Cc1cc2[nH]c(=O)c(=O)[nH]c2cc1C` and `O=c1[nH]c2cccnc2n1-c1ccc2c(c1)OCO2` cannot be ordered by melting point: > 250 °C for the first, 256 to 258 °C for the second.

`O=C(O)C1Cc2ccccc2N1c1ncccn1` (stereo unspecified) gave a melting point of 249 to 250 °C.

Reference: a melting point compilation (Tetko et al.; mined from patent text by program, amines drawn as free bases though some values may be those of a salt)
